Key:
[1] = biological target: EGFR (D746-750) (Homo sapiens, UniProt P00533, DEL746-750); experiment: HotSpot radiometric kinase assay, inhibition of EGFR 746-750 mutant; format: biochemical; conditions: 33P ATP, room temperature, 120 m
Procedure, shortened: (§1)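 Radiometric filter-binding format: ATP plus 33P-ATP ([…]) was added about 20 min after compound to kinase and substrate in HEPES pH 7.5 buffer with Mg2+, EGTA, Brij35, BSA, vanadate, DTT and 1% DMSO. After 120 min at room temperature, reactions were spotted on P81 paper and washed in phosphoric acid; IC50 values fitted.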

[2] = test system: PC-9 cells; experiment: 5-Day CellTiter Glo (CTG) cell proliferation assay, PC-9; format: cell-based; conditions: Homo sapiens; PC-9 cells (d746-750 EGFR), 5-day CTG proliferation, 120 hours; read-out: PC-9 IC50
Procedure, shortened: (§2)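 Proliferation of EGFR-driven NSCLC cells was scored as CellTiter-Glo 2.0 luminescence after a 5-day (120 h) incubation with compounds in 9 doses. IC50 values came from the dose-response curves.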

[3] = test system: BaF3 cells with engineered EGFR L858R/C797S; experiment: 3-Day CellTiter Glo (CTG) cell proliferation assay, BaF3 EGFR L858R/C797S; format: cell-based; conditions: Mus musculus, 3-day CTG proliferation, 72 hours
Procedure, shortened: (§3)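 Growth inhibition in transgene-bearing BaF3 lines was scored after three days of compound treatment by CellTiter-Glo 2.0 ATP luminescence, yielding IC50 values.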

[4] = biological target: EGFR WT (Homo sapiens, UniProt P00533); experiment: HotSpot radiometric kinase assay, inhibition of EGFR WT; format: biochemical; conditions: 33P ATP, room temperature, 120 m
Procedure, shortened: (§4)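 Kinase/substrate pairs in 20 mM HEPES pH 7.5, 10 mM MgCl2, 1 mM EGTA, 0.02% Brij35, 0.02 mg/ml BSA, 0.1 mM Na3VO4, 2 mM DTT, 1% DMSO were preincubated ~20 min with compound. ATP plus 33P-ATP (10 µM final) was added for 120 min at room temperature, and P81 filter binding gave IC50 values.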

[5] = test system: NCI-H1975 cells; experiment: 5-Day CellTiter Glo (CTG) cell proliferation assay, NCI-H1975; format: cell-based; conditions: Homo sapiens; NCI-H1975 cells (L858R/T790M EGFR), 5-day CTG proliferation, 120 hours; read-out: H1975 IC50
Procedure, shortened: as §2

[6] = test system: BaF3 cells with engineered EGFR L858R/T790M/C797S; experiment: 3-Day CellTiter Glo (CTG) cell proliferation assay, BaF3 EGFR L858R/T790M/C797S; format: cell-based; conditions: Mus musculus, 3-day CTG proliferation, 72 hours
Procedure, shortened: as §3

[7] = biological target: EGFR (L858R) (Homo sapiens, UniProt P00533, L858R); experiment: HotSpot radiometric kinase assay, inhibition of EGFR L858R mutant; format: biochemical; conditions: 33P ATP, room temperature, 120 m
Procedure, shortened: as §4

[8] = biological target: T1, pEGFR, NCI-H1975 cells (L858R/T790M EGFR) (Homo sapiens, UniProt P00533, L858R/T790M); experiment: Cellular EGFR phosphorylation assay (LANCE Ultra TR-FRET) in NCI-H1975 cells; format: cell-based; conditions: 4 hours at 37° C., read-out: H1975 pEGFR IC50
T1 construct: pEGFR (Tyr1068) TR-FRET
T1 sequence (P00533 25-1210 T790M/L858R): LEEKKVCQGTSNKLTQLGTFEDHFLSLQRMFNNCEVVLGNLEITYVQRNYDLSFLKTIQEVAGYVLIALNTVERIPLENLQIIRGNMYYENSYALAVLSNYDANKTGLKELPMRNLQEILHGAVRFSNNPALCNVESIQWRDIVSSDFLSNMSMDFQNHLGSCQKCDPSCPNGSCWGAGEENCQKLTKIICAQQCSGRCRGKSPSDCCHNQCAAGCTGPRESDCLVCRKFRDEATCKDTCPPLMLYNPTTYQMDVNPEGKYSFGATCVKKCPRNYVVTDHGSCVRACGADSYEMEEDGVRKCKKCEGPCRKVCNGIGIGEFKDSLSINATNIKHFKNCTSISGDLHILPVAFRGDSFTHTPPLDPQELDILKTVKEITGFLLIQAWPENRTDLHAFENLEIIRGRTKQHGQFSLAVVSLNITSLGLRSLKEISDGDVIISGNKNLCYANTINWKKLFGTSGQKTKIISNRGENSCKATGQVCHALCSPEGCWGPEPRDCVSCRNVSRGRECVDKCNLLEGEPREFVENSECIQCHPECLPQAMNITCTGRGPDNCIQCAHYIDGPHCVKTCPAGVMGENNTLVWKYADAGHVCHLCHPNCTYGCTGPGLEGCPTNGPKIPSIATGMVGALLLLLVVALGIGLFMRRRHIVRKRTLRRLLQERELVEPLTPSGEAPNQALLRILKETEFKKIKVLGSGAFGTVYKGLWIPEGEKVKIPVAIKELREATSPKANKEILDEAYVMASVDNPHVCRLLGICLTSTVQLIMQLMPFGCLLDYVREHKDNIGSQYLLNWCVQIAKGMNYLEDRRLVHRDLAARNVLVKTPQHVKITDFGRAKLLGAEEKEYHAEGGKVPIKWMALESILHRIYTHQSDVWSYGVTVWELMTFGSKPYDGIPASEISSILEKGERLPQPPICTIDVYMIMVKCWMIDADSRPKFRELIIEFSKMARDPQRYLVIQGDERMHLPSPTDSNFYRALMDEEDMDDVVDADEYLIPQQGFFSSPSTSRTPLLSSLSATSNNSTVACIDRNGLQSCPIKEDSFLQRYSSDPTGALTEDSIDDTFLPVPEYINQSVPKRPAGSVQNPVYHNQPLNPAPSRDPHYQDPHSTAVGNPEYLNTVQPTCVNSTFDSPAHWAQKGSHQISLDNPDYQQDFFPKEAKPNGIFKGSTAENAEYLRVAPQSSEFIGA
Procedure, shortened: (§5)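 4 h compound treatment at 37 °C, 9-point 3-fold titration. EGF (40 ng/mL, final 10 min) in A431 only. Tyr1068 phosphorylation measured by TR-FRET and IC50 fitted.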

[9] = biological target: T2, pEGFR, A431 cells (wildtype EGFR) (Homo sapiens, UniProt P00533); experiment: Cellular EGFR phosphorylation assay (LANCE Ultra TR-FRET) in A431 cells; format: cell-based; conditions: 4 hours at 37° C., 40 ng/mL EGF for the final 10 minutes, read-out: A431 pEGFR IC50
T2 construct: pEGFR (Tyr1068) TR-FRET
Procedure, shortened: as §5

[10] = test system: HCC827 cells; experiment: 5-Day CellTiter Glo (CTG) cell proliferation assay, HCC827; format: cell-based; conditions: Homo sapiens; HCC827 cells (d746-750 EGFR), 5-day CTG proliferation, 120 hours; read-out: HCC827 IC50
Procedure, shortened: as §2

[11] = biological target: EGFR (D746-750/C797S) (Homo sapiens, UniProt P00533, C797S/DEL746-750); experiment: HotSpot radiometric kinase assay, inhibition of EGFR 746-750/C797S mutant; format: biochemical; conditions: 33P ATP, room temperature, 120 m
Procedure, shortened: as §1

[12] = biological target: EGFR (L858R/T790M/C797S) (Homo sapiens, UniProt P00533, C797S/L858R/T790M); experiment: HotSpot radiometric kinase assay, inhibition of EGFR L858R/T790M/C797S mutant; format: biochemical; conditions: 33P ATP, room temperature, 120 m
Procedure, shortened: as §1

[13] = biological target: EGFR (L858R/T790M) (Homo sapiens, UniProt P00533, L858R/T790M); experiment: HotSpot radiometric kinase assay, inhibition of EGFR L858R/T790M mutant; format: biochemical; conditions: 33P ATP, room temperature, 120 m
Sequence of EGFR (L858R/T790M) (P00533 25-1210 T790M/L858R): as above
Procedure, shortened: as §1

[14] = biological target: T3, pEGFR, PC-9 cells (d746-750 EGFR) (Homo sapiens, UniProt P00533, DEL746-750); experiment: Cellular EGFR phosphorylation assay (LANCE Ultra TR-FRET) in PC-9 cells; format: cell-based; conditions: 4 hours at 37° C., read-out: PC-9 pEGFR IC50
T3 construct: pEGFR (Tyr1068) TR-FRET
T3 sequence (P00533 with tags, fused parts or gaps DEL746-750): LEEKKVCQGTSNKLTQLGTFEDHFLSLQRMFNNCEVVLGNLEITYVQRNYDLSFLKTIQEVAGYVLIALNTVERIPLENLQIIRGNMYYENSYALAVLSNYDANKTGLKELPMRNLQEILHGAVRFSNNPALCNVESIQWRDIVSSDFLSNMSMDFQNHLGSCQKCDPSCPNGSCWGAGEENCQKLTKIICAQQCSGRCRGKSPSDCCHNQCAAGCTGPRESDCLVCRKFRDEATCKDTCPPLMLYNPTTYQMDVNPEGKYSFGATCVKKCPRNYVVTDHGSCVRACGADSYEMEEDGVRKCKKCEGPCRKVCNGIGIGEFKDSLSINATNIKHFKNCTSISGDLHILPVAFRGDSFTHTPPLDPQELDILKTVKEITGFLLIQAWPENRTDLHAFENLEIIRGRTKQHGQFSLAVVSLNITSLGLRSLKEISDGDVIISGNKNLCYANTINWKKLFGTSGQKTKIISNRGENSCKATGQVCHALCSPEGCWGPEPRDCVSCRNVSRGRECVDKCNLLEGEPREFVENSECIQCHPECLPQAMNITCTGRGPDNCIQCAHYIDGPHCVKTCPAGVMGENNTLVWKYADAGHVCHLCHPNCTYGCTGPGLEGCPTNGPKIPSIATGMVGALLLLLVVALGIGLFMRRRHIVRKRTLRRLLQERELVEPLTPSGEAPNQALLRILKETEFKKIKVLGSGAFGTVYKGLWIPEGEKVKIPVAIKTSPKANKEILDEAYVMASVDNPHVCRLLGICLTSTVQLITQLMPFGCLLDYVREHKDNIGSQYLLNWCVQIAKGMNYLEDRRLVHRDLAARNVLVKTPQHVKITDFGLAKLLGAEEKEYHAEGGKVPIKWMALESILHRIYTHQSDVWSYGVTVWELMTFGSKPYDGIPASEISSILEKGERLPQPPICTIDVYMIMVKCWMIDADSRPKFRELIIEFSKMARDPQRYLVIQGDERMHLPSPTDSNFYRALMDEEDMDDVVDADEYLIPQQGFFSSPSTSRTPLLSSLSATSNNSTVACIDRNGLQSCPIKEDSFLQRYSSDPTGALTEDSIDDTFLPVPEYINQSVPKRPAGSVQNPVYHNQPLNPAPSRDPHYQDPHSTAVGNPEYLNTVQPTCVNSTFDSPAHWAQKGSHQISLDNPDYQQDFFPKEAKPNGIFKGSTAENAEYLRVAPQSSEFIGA
Procedure, shortened: as §5

[15] = biological target: EGFR (D770_N771insNPG) (Homo sapiens, UniProt P00533, INS770NPG); experiment: HotSpot radiometric kinase assay, inhibition of EGFR (D770_N771insNPG) mutant; format: biochemical; conditions: 33P ATP, room temperature, 120 m
Procedure, shortened: as §1

[16] = test system: BaF3 cells with engineered EGFR d746-750/T790M; experiment: 3-Day CellTiter Glo (CTG) cell proliferation assay, BaF3 EGFR d746-750/T790M; format: cell-based; conditions: Mus musculus; BaF3 EGFR d746-750/T790M cells, 3-day CTG proliferation, 72 hours
Procedure, shortened: as §3

Sequence of EGFR (D746-750) (P00533 with tags, fused parts or gaps DEL746-750): as above

| Structure (SMILES) | IC50 [1] | IC50 [2] | IC50 [3] | IC50 [4] | IC50 [5] | IC50 [6] | IC50 [7] | IC50 [8] | IC50 [9] | IC50 [10] | IC50 [11] | IC50 [12] | IC50 [13] | IC50 [14] | IC50 [15] | IC50 [16] |
| --- | --- | --- | --- | --- | --- | --- | --- | --- | --- | --- | --- | --- | --- | --- | --- | --- |
| CCOc1nn(CCO)c2c1/C=C/c1n[nH]c3c(C)nc(cc13)-c1cnn(C)c1O[C@@H](C)CN(CC)C2 [Ex. 28, 2-[(10S,17E)-16-ethoxy-12-ethyl-8,10,20-trimethyl-2,8,10,11,12,13-hexahydro-14H-5,3-(azenometheno)tripyrazolo[3,4-f:3′,4′-j:4″,3″-n][1,4]oxazacyclopentadecin-14-yl]ethan-1-ol] | 0.37 nM | 16.8 nM | 2.47 nM | 1.03 nM | 33 nM | 1.71 nM | 1.99 nM | 3 nM | 52.8 nM | 2.33 nM | 0.85 nM | 0.41 nM | 0.46 nM | 14.4 nM | 1.23 nM | 1.16 nM |
| CCOc1nn(CCO)c2c1/C=C/c1n[nH]c3c(C)nc(cc13)-c1cnn(C)c1O[C@@H](C)CN(C)C2 [Ex. 29, 2-[(10S,17E)-16-ethoxy-8,10,12,20-tetramethyl-2,8,10,11,12,13-hexahydro-14H-5,3-(azenometheno)tripyrazolo[3,4-f:3′,4′-j:4″,3″-30n][1,4]oxazacyclopentadecin-14-yl]ethan-1-ol] | 0.2 nM | 11.4 nM | 0.17 nM | 0.22 nM | 1.04 nM | 0.74 nM | 0.72 nM | 0.93 nM | 13.7 nM | 1.12 nM | 0.65 nM | 0.3 nM | 0.3 nM | 3.63 nM | 0.29 nM | 0.9 nM |
| CCOc1nn(CCO)c2c1/C=C/c1n[nH]c3c(C)nc(cc13)-c1c(C)nn(C)c1O[C@@H](C)CN(C)C2 [Ex. 47, 2-[(10S,17E)-16-ethoxy-6,8,10,12,20-pentamethyl-2,8,10,11,12,13-hexahydro-14H-5,3-(azenometheno)tripyrazolo[3,4-f:3′,4′-j:4″,3″-n][1,4]oxazacyclopentadecin-14-yl]ethan-1-ol] | 0.43 nM | 1.8 nM | 0.07 nM | 0.18 nM | 1.77 nM | 0.62 nM | 0.2 nM | 1.06 nM | 15.2 nM | 0.57 nM | 0.27 nM | 0.28 nM | 0.32 nM | 1.13 nM | 0.2 nM | 1.5 nM |
| CCOc1nn([C@@H](C)CO)c2c1/C=C/c1n[nH]c3c(C)nc(cc13)-c1c(C)nn(C)c1O[C@@H](C)CN(C)C2 [Ex. 54, (2S)-2-[(10S,17E)-16-ethoxy-6,8,10,12,20-pentamethyl-2,8,10,11,12,13-hexahydro-14H-5,3-(azenometheno)tripyrazolo[3,4-f:3′,4′-j:4″,3″-n][1,4]oxazacyclopentadecin-14-yl]propan-1-ol] | 0.67 nM | 0.78 nM | 0.06 nM | 0.38 nM | 0.99 nM | 0.55 nM | 0.32 nM | 0.94 nM | 10.7 nM | 0.41 nM | 0.48 nM | 0.65 nM | 1.04 nM | 0.67 nM | 0.55 nM | 0.55 nM |
| CCOc1nn([C@@H](C)CO)c2c1/C=C/c1n[nH]c3cnc(cc13)-c1c(C)nn(C)c1O[C@@H](C)CN(C1CC1)C2 [Ex. 110, (2S)-2-[(10S,17E)-12-cyclopropyl-16-ethoxy-6,8,10-trimethyl-2,8,10,11,12,13-hexahydro-14H-5,3-(azenometheno)tripyrazolo[3,4-f:3′,4′-j:4″,3″-n][1,4]oxazacyclopentadecin-14-yl]propan-1-ol] | 0.46 nM | 0.47 nM | 0.07 nM | 0.09 nM | 1.07 nM | 0.71 nM | 0.36 nM | 1.76 nM | 1.42 nM | 0.31 nM | 0.56 nM | 0.25 nM | 0.5 nM | 1.12 nM | 0.18 nM | 0.61 nM |
| CCOc1nn([C@@H](C)CO)c2c1/C=C/c1n[nH]c3c(C)nc(cc13)-c1c(C)nn(C)c1O[C@H](C)[C@H]1CCCN1C2 [Ex. 180, (2S)-2-[(8aR,9R,19E)-1-ethoxy-9,11,13,21-tetramethyl-7,8,8a,9,11,17-hexahydro-6H-14,16-(azenometheno)tripyrazolo[3,4-f:3′,4′-j:4″,3″-n]pyrrolo[2,1-c][1,4]oxazacyclopentadecin-3(4H)-yl]propan-1-ol] | 0.21 nM | 0.7 nM | 0.06 nM | 0.05 nM | 0.95 nM | 0.69 nM | 0.15 nM | 1.54 nM | 6.08 nM | 0.34 nM | 0.21 nM | 0.13 nM | 0.16 nM | 0.64 nM | 0.1 nM | 0.57 nM |

From patent US20260317344A1, “EGFR INHIBITORS FOR TREATING DISEASE” (BLOSSOMHILL THERAPEUTICS, INC., priority 2023, published 2026)
